Assay results published in ChEMBL document CHEMBL5291721, “A preclinical secondary pharmacology resource illuminates target-adverse drug reaction associations of marketed drugs” (Nat Commun, 2023).

Key:
[1] = molecular target: T1, Cholecystokinin receptor type A (Homo sapiens, UniProt P32238)
T1 sequence (P32238 whole entry): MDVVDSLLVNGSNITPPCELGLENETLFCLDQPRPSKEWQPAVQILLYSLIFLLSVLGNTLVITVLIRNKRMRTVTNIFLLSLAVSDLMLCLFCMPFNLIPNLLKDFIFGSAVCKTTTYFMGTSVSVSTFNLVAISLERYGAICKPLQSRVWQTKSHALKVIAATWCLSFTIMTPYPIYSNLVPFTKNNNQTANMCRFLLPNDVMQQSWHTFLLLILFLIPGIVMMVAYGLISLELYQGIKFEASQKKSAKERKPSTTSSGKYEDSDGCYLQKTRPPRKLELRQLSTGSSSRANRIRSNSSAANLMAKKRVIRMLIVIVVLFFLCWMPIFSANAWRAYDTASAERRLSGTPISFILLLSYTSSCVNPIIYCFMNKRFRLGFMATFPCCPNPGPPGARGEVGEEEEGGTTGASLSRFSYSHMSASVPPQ

[2] = molecular target: T2, Equilibrative nucleoside transporter 1 (Homo sapiens, UniProt Q99808)
T2 sequence (Q99808 whole entry): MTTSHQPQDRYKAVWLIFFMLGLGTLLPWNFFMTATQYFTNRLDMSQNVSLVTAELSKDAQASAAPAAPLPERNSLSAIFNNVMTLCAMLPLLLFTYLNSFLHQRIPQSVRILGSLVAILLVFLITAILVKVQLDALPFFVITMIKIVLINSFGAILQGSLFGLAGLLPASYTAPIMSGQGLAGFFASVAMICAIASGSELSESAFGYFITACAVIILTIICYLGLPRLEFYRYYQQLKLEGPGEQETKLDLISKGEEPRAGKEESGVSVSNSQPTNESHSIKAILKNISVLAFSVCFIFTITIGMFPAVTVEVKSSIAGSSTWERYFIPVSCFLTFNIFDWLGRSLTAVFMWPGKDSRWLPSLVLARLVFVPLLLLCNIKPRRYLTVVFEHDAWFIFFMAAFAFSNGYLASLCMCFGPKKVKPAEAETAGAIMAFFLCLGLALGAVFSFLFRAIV

[3] = molecular target: T3, Muscarinic acetylcholine receptor M2 (Homo sapiens, UniProt P08172); assay type: functional, cell-based
T3 sequence (P08172 whole entry): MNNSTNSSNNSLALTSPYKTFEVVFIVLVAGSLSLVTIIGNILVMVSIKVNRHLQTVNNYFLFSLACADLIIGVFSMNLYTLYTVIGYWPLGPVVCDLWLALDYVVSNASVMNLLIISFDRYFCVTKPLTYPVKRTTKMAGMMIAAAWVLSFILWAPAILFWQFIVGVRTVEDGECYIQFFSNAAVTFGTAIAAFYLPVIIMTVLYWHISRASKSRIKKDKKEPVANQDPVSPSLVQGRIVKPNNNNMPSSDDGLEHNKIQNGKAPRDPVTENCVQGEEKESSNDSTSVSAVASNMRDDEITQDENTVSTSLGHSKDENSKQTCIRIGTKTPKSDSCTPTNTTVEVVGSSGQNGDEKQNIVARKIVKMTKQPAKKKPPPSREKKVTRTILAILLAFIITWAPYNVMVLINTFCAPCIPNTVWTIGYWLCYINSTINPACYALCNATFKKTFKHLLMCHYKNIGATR

Histamine H2 receptor = Histamine H2 receptor (Homo sapiens, UniProt P25021); assay type: functional, cell-based
[4] = molecular target: Growth hormone secretagogue receptor type 1 (Homo sapiens, UniProt Q92847)
[5] = molecular target: Voltage-gated inwardly rectifying potassium channel KCNH2 (Homo sapiens, UniProt Q12809); assay type: functional
Thromboxane A2 receptor = molecular target: T4, Thromboxane A2 receptor (Homo sapiens, UniProt P21731)
T4 sequence (P21731 whole entry): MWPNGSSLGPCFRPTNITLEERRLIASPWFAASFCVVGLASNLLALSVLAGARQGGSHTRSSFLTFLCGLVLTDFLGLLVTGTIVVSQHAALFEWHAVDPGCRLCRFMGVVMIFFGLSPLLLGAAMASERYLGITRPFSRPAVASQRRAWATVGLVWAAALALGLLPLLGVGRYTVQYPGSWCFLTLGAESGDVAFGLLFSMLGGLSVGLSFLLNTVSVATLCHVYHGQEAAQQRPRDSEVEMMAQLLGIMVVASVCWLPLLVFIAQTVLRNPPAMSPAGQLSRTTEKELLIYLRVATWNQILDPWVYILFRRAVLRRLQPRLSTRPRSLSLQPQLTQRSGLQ

B2 bradykinin receptor = molecular target: T5, B2 bradykinin receptor (Homo sapiens, UniProt P30411)
T5 sequence (P30411 whole entry): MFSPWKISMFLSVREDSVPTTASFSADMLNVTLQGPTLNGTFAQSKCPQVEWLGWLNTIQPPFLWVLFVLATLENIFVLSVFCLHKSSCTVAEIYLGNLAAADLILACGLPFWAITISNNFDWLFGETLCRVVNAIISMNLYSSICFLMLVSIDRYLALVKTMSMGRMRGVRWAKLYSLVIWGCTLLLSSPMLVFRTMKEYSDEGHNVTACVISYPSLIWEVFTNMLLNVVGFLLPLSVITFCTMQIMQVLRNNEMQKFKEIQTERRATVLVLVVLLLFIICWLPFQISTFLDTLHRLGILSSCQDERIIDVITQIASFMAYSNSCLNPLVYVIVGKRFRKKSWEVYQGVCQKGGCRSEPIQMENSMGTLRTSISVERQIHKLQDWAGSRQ

D(3) dopamine receptor = D(3) dopamine receptor (Homo sapiens, UniProt P35462)
Melanocortin receptor 3 = Melanocortin receptor 3 (Homo sapiens, UniProt P41968)
Adenosine receptor A1 = molecular target: T6, Adenosine receptor A1 (Homo sapiens, UniProt P30542)
T6 sequence (P30542 whole entry): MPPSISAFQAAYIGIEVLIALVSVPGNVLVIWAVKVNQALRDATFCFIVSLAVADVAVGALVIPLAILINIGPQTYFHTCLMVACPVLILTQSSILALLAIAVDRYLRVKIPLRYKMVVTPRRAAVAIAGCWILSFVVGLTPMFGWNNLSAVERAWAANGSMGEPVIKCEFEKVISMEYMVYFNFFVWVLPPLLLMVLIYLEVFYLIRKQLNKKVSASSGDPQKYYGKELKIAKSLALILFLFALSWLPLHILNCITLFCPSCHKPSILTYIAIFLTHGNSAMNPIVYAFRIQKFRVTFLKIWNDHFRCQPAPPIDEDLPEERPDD
Further: assay procedure not described here.

Sequence of D(3) dopamine receptor (P35462 whole entry): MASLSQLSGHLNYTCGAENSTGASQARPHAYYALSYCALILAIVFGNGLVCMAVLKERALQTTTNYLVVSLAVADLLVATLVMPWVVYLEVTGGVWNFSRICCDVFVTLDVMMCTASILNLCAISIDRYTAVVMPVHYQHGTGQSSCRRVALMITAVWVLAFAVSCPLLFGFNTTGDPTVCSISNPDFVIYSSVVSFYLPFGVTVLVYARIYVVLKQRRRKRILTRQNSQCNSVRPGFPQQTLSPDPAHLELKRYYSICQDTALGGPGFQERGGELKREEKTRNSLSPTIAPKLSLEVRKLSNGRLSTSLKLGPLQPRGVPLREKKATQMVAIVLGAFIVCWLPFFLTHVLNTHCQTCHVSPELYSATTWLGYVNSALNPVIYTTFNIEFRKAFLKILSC
Sequence of Growth hormone secretagogue receptor type 1 (Q92847 whole entry): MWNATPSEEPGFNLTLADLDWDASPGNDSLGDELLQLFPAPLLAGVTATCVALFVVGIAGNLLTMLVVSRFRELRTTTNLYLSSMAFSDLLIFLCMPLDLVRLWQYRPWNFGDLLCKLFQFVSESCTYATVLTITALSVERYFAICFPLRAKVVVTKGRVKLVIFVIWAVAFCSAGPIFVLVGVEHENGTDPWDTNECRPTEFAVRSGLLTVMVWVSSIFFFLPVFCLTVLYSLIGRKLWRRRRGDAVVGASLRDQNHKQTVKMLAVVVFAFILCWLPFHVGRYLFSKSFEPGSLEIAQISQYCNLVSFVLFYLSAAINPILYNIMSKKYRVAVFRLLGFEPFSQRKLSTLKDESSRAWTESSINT
Sequence of Histamine H2 receptor (P25021 whole entry): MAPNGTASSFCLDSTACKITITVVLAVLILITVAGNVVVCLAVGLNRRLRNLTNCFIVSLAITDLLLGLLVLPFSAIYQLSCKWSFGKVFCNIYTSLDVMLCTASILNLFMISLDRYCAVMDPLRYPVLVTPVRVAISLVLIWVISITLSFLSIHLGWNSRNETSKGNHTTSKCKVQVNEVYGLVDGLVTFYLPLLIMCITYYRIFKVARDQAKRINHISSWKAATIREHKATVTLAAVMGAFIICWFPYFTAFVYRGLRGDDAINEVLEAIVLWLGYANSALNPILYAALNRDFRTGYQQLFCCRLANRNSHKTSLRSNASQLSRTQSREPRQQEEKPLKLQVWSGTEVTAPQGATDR
Sequence of Melanocortin receptor 3 (P41968 whole entry): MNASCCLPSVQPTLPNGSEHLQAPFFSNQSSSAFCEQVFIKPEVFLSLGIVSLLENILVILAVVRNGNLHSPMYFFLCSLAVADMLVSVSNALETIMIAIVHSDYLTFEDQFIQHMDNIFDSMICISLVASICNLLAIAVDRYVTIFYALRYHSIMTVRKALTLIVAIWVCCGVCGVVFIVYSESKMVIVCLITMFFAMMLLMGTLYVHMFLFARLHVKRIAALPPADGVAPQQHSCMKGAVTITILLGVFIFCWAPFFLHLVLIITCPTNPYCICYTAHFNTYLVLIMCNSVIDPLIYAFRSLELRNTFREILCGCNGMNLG
Sequence of Voltage-gated inwardly rectifying potassium channel KCNH2 (Q12809 whole entry): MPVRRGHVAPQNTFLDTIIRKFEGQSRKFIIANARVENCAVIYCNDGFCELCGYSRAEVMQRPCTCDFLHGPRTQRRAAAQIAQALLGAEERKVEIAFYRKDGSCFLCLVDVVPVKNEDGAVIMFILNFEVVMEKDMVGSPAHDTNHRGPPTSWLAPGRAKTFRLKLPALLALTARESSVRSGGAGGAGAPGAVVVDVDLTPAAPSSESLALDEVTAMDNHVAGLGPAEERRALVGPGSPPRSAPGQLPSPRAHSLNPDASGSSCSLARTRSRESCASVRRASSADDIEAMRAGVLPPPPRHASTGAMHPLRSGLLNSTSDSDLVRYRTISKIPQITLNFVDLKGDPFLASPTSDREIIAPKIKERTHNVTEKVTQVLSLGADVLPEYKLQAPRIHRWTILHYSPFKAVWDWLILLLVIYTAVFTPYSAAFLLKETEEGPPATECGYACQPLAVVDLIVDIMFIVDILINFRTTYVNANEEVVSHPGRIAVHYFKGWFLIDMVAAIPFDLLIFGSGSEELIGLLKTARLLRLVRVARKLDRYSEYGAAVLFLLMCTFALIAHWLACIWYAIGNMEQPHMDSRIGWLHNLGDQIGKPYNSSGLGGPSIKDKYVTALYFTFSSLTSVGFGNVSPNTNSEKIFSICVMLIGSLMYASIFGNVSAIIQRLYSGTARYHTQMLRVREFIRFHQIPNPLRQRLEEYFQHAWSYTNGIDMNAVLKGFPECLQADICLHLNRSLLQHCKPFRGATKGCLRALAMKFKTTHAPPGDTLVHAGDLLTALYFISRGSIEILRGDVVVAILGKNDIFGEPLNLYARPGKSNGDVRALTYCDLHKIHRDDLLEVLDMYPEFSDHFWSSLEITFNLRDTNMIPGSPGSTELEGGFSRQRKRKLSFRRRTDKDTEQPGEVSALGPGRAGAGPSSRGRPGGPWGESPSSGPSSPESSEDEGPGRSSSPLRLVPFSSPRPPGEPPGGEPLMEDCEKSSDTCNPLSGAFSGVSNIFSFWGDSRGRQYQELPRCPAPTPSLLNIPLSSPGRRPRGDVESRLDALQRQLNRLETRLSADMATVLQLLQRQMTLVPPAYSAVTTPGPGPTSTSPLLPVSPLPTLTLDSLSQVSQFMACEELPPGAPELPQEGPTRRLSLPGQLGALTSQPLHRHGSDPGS

SMILES	AC50 [1]	AC50 [2]	AC50 [3]	AC50 (Histamine H2 receptor)	AC50 [4]	AC50 [5]	AC50 (Thromboxane A2 receptor)	AC50 (B2 bradykinin receptor)	AC50 (D(3) dopamine receptor)	AC50 (Melanocortin receptor 3)	AC50 (Adenosine receptor A1)
CC(=O)N[C@@H](CS)C(=O)O [ACETYLCYSTEINE]	> 30 µM	> 30 µM	> 30 µM	> 30 µM	> 30 µM	> 30 µM	> 30 µM	> 30 µM	> 30 µM	> 30 µM	> 30 µM
C=CCNc1nc(NCC=C)nc(N2CCN(C(c3ccc(F)cc3)c3ccc(F)cc3)CC2)n1 [ALMITRINE]	> 30 µM	> 30 µM	> 30 µM	> 30 µM	> 30 µM	> 30 µM	> 30 µM	> 30 µM	> 30 µM	> 30 µM	> 30 µM
CN1CCC(=C2c3ccccc3CCc3cccnc32)CC1 [AZATADINE]	> 30 µM	> 30 µM	> 10 µM	> 10 µM	> 30 µM	24.6 µM	> 30 µM	> 30 µM	> 10 µM	> 30 µM	> 30 µM
CC(C)COCC(CN(Cc1ccccc1)c1ccccc1)N1CCCC1 (stereo not drawn) [BEPRIDIL]	23.2 µM	> 30 µM	> 30 µM	> 30 µM	22.1 µM		> 30 µM	> 30 µM	2.6 µM	12.5 µM	> 30 µM
CCCCC(=O)O[C@]1(C(=O)CO)[C@@H](C)C[C@H]2[C@@H]3CCC4=CC(=O)C=C[C@]4(C)[C@@]3(F)[C@@H](O)C[C@@]21C [BETAMETHASONE VALERATE]	> 30 µM	> 30 µM	> 10 µM	> 10 µM	> 30 µM	> 30 µM	> 30 µM	> 30 µM	> 30 µM	> 30 µM	> 30 µM
COCC1=C(C(=O)O)N2C(=O)[C@@H](NC(=O)/C(=N\OC)c3csc(N)n3)[C@H]2SC1 [CEFPODOXIME]	> 30 µM	> 30 µM	> 30 µM	> 30 µM	> 30 µM	> 30 µM	> 30 µM	> 30 µM	> 30 µM	> 30 µM	> 30 µM
CC1OC2(CS1)CN1CCC2CC1 (stereo not drawn) [CEVIMELINE]	> 10 µM	> 10 µM	3.03 µM	> 30 µM	> 10 µM	> 30 µM	> 10 µM	> 10 µM	> 30 µM	> 10 µM	> 10 µM
CNC1=Nc2ccc(Cl)cc2C(c2ccccc2)=[N+]([O-])C1 [CHLORDIAZEPOXIDE]	> 30 µM	> 30 µM	> 10 µM	> 30 µM	> 30 µM	> 30 µM	> 30 µM	> 30 µM	> 30 µM	> 30 µM	> 30 µM
COc1cc(N)c(Cl)cc1C(=O)NC1CCN(Cc2ccccc2)CC1 [CLEBOPRIDE]	> 30 µM	> 30 µM	> 30 µM	> 30 µM	> 30 µM	1.4 µM	> 30 µM	> 30 µM		> 30 µM	> 30 µM
Nc1ncn([C@H]2C[C@H](O)[C@@H](CO)O2)c(=O)n1 [DECITABINE]	> 30 µM	> 30 µM	> 30 µM	> 30 µM	> 30 µM	> 30 µM	> 30 µM	> 30 µM	> 30 µM	> 30 µM	> 30 µM
CN1CCN(C2=Nc3ccccc3Oc3ccc(Cl)cc32)CC1 [LOXAPINE]	> 30 µM	> 30 µM		> 10 µM	> 30 µM	10.6 µM	> 30 µM	> 30 µM	0.032 µM	> 30 µM	> 30 µM
CCCN[C@H]1CCc2nc(N)sc2C1 [PRAMIPEXOLE]	> 30 µM	> 30 µM	> 10 µM	0.73 µM	> 30 µM	> 30 µM	> 30 µM	> 30 µM		> 30 µM	> 30 µM
Clc1ccc(C(Cn2ccnc2)OCc2ccsc2Cl)c(Cl)c1 (stereo not drawn) [TIOCONAZOLE]	> 30 µM	> 30 µM	> 30 µM	> 30 µM	8.5 µM		28.1 µM	> 3 µM	24 µM	> 30 µM	> 30 µM
Cc1cccc(N2CC(CO)OC2=O)c1 (stereo not drawn) [TOLOXATONE]	> 30 µM		> 30 µM	> 30 µM	> 30 µM	> 30 µM	> 30 µM	> 30 µM	> 30 µM	> 30 µM	> 30 µM
CCC(C)C(CC)C(N)=O (stereo not drawn) [VALNOCTAMIDE]	> 30 µM		> 30 µM	> 30 µM	> 30 µM	> 30 µM	> 30 µM	> 30 µM	> 30 µM	> 30 µM	> 30 µM
CCOC(=O)C1=C[C@]2(CC)CCCN3CCc4c(n1c1ccccc41)[C@@H]32 [VINPOCETINE]	> 30 µM	> 30 µM	13 µM	> 30 µM	> 30 µM		> 30 µM	> 30 µM	23 µM	> 30 µM	30 µM
Cc1cc(C(C)(C)C)cc(C)c1CC1=NCCN1 [XYLOMETAZOLINE]	> 30 µM		> 30 µM	> 30 µM	> 30 µM	5.2 µM	> 30 µM	> 30 µM	3.87 µM	> 30 µM	> 30 µM
